Test system: batrachotoxin (BTX) binding site of the sodium channel
Test: Affinity for the batrachotoxin (BTX) binding site of the sodium channel, [3H]-batrachotoxinin A20 α-benzoate, rat cerebrocortex synaptosomes
Settings: test concentration not given

SMILES | BTX inhibition (rat) % inhibition [%]
Cc1cc(C)c(S(=O)(=O)N2CCc3onc(C(=O)N4CCC(CCN5CCCC5)CC4)c3C2)c(C)c1 [Example 146, (5-(mesitylsulfonyl)-4,5,6,7-tetrahydroisoxazolo[4,5-c]pyridin-3-yl)(4-(2-(pyrrolidin-1-yl)ethyl)piperidin-1-yl)methanone] | 81
CC(CNC(=O)c1noc2c1CN(S(=O)(=O)c1cccs1)CC2)c1ccccc1 (stereo not shown) [Example 104, 5-(thiophene-2-sulfonyl)-4,5,6,7-tetrahydro-isoxazolo[4,5-c]pyridine-3-carboxylic acid (2-phenyl-propyl) amide] | 50
O=C(NCCCc1ccccc1)c1noc2c1CN(S(=O)(=O)c1ccc(F)cc1)CC2 [Example 35, 5-(4-fluoro-benzenesulfonyl)-4,5,6,7-tetrahydro-isoxazolo[4,5-c]pyridine-3-carboxylic acid (3-phenyl-propyl) amide] | 59
O=C(NCCc1ccccc1)c1noc2c1CN(C(=O)Nc1cccc(F)c1)CC2 [Example 8, 6,7-dihydro-4H-isoxazolo[4,5-c]pyridine-3,5-dicarboxylic acid 5-[(3-fluorophenyl) amide] 3-(phenethyl amide)] | 72
O=C(NC1CCN(Cc2ccc(C(F)(F)F)cc2)C1)c1noc2c1CN(S(=O)(=O)c1ccc(F)cc1)CC2 (stereo not shown) [Example 39, 5-(4-fluoro-benzenesulfonyl)-4,5,6,7-tetrahydro-isoxazolo[4,5-c]pyridine-3-carboxylic acid [1-(4-trifluoromethyl-benzyl)-pyrrolidin-3-yl]amide] | 79
COCCNC(=O)c1noc2c1CN(C(=O)c1ccc(C(F)(F)F)c(F)c1)CC2 [Example 153, 5-(3-fluoro-4-(trifluoromethyl)benzoyl)-N-(2-methoxyethyl)-4,5,6,7-tetrahydroisoxazolo[4,5-c]pyridine-3-carboxamide] | 28
CC12CCC(C(=O)N3CCc4onc(C(=O)NCCN5CCCC5)c4C3)(OC1=O)C2(C)C (stereo not shown) [Example 51, 5-(4,7,7-trimethyl-3-oxo-2-oxa-bicyclo[2.2.1]heptane-1-carbonyl)-4,5,6,7-tetrahydro-isoxazolo[4,5-c]pyridine-3-carboxylic acid (2-pyrrolidin-1-yl-ethyl) amide] | 42
Cc1ccc(N2CCN(C(=O)c3noc4c3CN(S(=O)(=O)c3cc(Cl)ccc3Cl)CC4)CC2)c(C)c1 [Example 65, [5-(2,5-dichloro-benzenesulfonyl)-4,5,6,7-tetrahydro-isoxazolo[4,5-c]pyridin-3-yl]-[4-(2,4-dimethyl-phenyl)-piperazin-1-yl]-methanone] | 49
O=C(c1noc2c1CN(S(=O)(=O)c1ccc(Cl)c(Cl)c1)CC2)N1CCC(CCN2CCCC2)CC1 [Example 147, (5-(3,4-dichlorophenylsulfonyl)-4,5,6,7-tetrahydroisoxazolo[4,5-c]pyridin-3-yl)(4-(2-(pyrrolidin-1-yl)ethyl)piperidin-1-yl)methanone] | 70
COc1ccc(Cl)cc1NC(=O)N1CCc2onc(C(=O)NCCc3ccccc3)c2C1 [Example 22, 6,7-dihydro-4H-isoxazolo[4,5-c]pyridine-3,5-dicarboxylic acid 5-[(5-chloro-2-methoxyphenyl) amide] 3-(phenethyl amide)] | 56
CN(C)S(=O)(=O)N1CCc2onc(C(=O)NCCc3ccc(Cl)cc3)c2C1 [Example 76, 5-dimethylsulfamoyl-4,5,6,7-tetrahydro-isoxazolo[4,5-c]pyridine-3-carboxylic acid [2-(4-chlorophenyl)-ethyl] amide] | 41
O=C(NCCc1ccccc1Cl)c1noc2c1CN(S(=O)(=O)c1cc(Cl)ccc1Cl)CC2 [Example 52, 5-(2,5-dichloro-benzenesulfonyl)-4,5,6,7-tetrahydro-isoxazolo[4,5-c]pyridine-3-carboxylic acid [2-(2-chlorophenyl)-ethyl] amide] | 44
O=C(NC(=S)N1CCc2onc(C(=O)NCCN3CCCC3)c2C1)c1ccccc1 [Example 128, 5-benzoylaminocarbothioyl-4,5,6,7-tetrahydro-isoxazolo[4,5-c]pyridine-3-carboxylic acid (2-pyrrolidin-1-yl-ethyl) amide] | 74
